Data reported in patent US6313170A, “L-threonate ferrous, as well as pharmaceutical composition and use for improving and treating human anemia thereof” (priority 1997, dated 2001).
Read-outs that look alike come from different tables or passages of the source.

Tests used:
[1] = water
[2] = rat, in vivo, po, 72 h
Method: Its chemical formula is Fe(C4 H7 O5)2.2H2 O, molecular weight:362.
Animals: Male Wistar rats were supplied by Experimental Animal Center, Tumor Institute of Heilongjian Province with body weight of 140 g-180 g. The iron-low diet contains iron 0.9 mg/kg.
50 rats were randomly divided into 5 groups of [19] 10 rats each. On this basis of administration of iron-low diet, each group of rats was administered respectively by gavage according to the dosage below:
High dosage group: Fe, 5 mg/kg, ferrous L-threonate, 32.32 mg/kg;
Middle dosage group: Fe, 2.5 mg/kg, ferrous L-threonate, 16.16 mg/kg;
Low dosage group: Fe, 1.0 mg/kg, ferrous L-threonate, 6.46 mg/kg;
Positive drug control group (ferrous sulfate): Fe, 2.5 mg/kg, ferrous sulfate, 12.43 mg/kg;
Negative drug control group (iron-low diet): Fe, 0.9 mg/kg (measured value).
After the end of 7 days feeding normal diet period, rats were supplemented with iron-low diet prepared according to AOAC formula for another 7 days. The 1-3 groups were treatment groups and supplemented with ferrous L-threonate 32.32 mg/kg (5 mgFe/kg, high dose group), 16.16 mg/kg (2.5 mg Fe/kg, middle dose group) and 6.46 mg/kg (1.0 mg Fe/kg, low dose group), respectively. The forth, positive drug control group, was provided with ferrous sulfate 12.43 mg/kg (2.5 mg Fe/kg). The fifth was model control group and was offered with iron-low diet (0.9 mg Fe/kg). Each groups were arranged to take drug one time by I.G (gavage) method per day and in the same time were supplemented with deionized water.
The test was sustained three days. Each rat's excrement was collected, dried at temperature 80-90° C., weighed and ground into 40-60 meshes. About 0.5 to 0.6 gram sample was taken and a mixture of nitric acid and perchloric acid at a ratio of 4:1 was added therein until completion of digestion. The constant volume is 10 ml. The iron content of excrement was determined by atomic absorption method and the iron absorptive rate for each rat can be calculated by the formula listed below. [formula]

[3] = in vivo, po
bone marrow cells = conditions: in vivo
Hemolytic Anemia Model = test: Hemolytic anemia model (acetylphenylhydrazine), rats; format: in vivo, male Wistar rats
Method: (§1) 1. […] All drugs were diluted by distilled water.
2. […] Animal diet also was purchased from Beijing Medical University.
(1) Hemolytic Anemia Model: Hemolytic anemia model was prepared for rats by injecting reagent of acetylphenylhydrazine (C8 H10 N2 O, produced by Beijing Biochemical Company) subcutaneously. The drug acetyphenylhydrazine was mixed with physiological saline to get its injection solution of 4% by weight of acetyphenylhydrazine. The solution was injected subcutaneously into each rat with a dosage of 57 μg/g at the beginning of the experiments. The content of blood hemochrome for each rat was examined at 2 days and 4 days later, respectively. When the mean blood hemochrome decreased to about 6.11±0.25 g %, rats were randomly divided into 6 groups of 18 rats each. […] The forth groups was positive drug control groups. The fifth group and the sixth group were designed as model group and normal control group, respectively.

Nutritional IDA Model = system: Nutritional IDA Model
Method: as §1
(2) Nutritional Anemia Model: Male Wistar rats with body weight 43±2.5 g (Animal Center of Beijing Medical University) were randomly divided into 8 groups of 10 rats each, wherein 6 groups were established for the investigation of nutritional anemia and 2 groups were used as normal control group. The rats of these six groups were supplemented with iron-low diet (prepared according to the formula of AOAC, iron content 8.0 mg/kg) and deionized water four weeks to prepare the nutritional IDA model, which also was called hemoglobin exhausting test. Another two groups were designed as normal control groups and were provided with normal diet (obtained from Beijing Medical University) and water during the whole experimental period.
Hemoglobin of each group of rats was measured one time every 7 days. […] Other 6 groups (three for ferrous L-threonate, one for ferrous gluconate, one for mode control and one normal control group) rats were kept under controlled conditions (ambient temperature 23° C., 60% relative humidity, and 10 hours light) in animal feeding room to continue the further test.

mice testicle cells = conditions: mouse, in vivo
[4] = 8.64 mg Fe/kg (middle dosage / positive control)

In the case of ferrous L-threonate, the solubility [1] is reported as “soluble in water”, the Absorptivity ([2]; 1 mg/kg) is reported as 59.10 ± 5.01% and the Absorptivity ([2]; 2.5 mg/kg) is reported as 54.90 ± 4.08%. For the same substance, the Absorptivity ([2]; 5 mg/kg) was 42.60 ± 1.79%, the “embryonic toxicity and aberration” value [3] was “did not produce embryonic toxicity and abberation” and the micronucleus test result (bone marrow cells) was “negative”. For the same substance, the “Iron content of whole blood” value (Hemolytic Anemia Model; [4]) was 301.89 ± 19.500 µg/mL, the “Serum ferritin (SF)” value (Hemolytic Anemia Model; [4]) was 23.54 ± 2.50 ng/mL and the hemoglobin content (Hemolytic Anemia Model; 8.64 mg Fe/kg (middle dosage / positive control), after anemia (before treatment)) was 5.87 g %. It also gave a hemoglobin content (Hemolytic Anemia Model; 8.64 mg Fe/kg (middle dosage / positive control), before anemia (baseline)) of 15.01 g %, a hemoglobin content (Hemolytic Anemia Model; 8.64 mg Fe/kg (middle dosage / positive control), one week after treatment) of 11.11 g % and a hemoglobin content (Hemolytic Anemia Model; 8.64 mg Fe/kg (middle dosage / positive control), two weeks after treatment) of 14.04 g %. The “whole blood iron and serum ferritin compared with ferrous gluconate group” value (Hemolytic Anemia Model; groups except low dosage group) was “more considerably better than those of ferrous gluconate group”, the “Iron content of whole blood” value (Hemolytic Anemia Model; high dosage, 17.28 mg Fe/kg) was 326.95 ± 26.956 µg/mL and the “Serum ferritin (SF)” value (Hemolytic Anemia Model; high dosage, 17.28 mg Fe/kg) was 24.05 ± 1.74 ng/mL. For the same substance, the hemoglobin content (Hemolytic Anemia Model; high dosage, 17.28 mg Fe/kg, after anemia (before treatment)) was 6.18 g %, the hemoglobin content (Hemolytic Anemia Model; high dosage, 17.28 mg Fe/kg, before anemia (baseline)) was 14.9 g % and the hemoglobin content (Hemolytic Anemia Model; high dosage, 17.28 mg Fe/kg, one week after treatment) was 11.95 g %. The hemoglobin content (Hemolytic Anemia Model; high dosage, 17.28 mg Fe/kg, two weeks after treatment) was 14.34 g %, the “Iron content of whole blood” value (Hemolytic Anemia Model; low dosage, 4.32 mg Fe/kg) was 283.53 ± 23.051 µg/mL and the “Serum ferritin (SF)” value (Hemolytic Anemia Model; low dosage, 4.32 mg Fe/kg) was 19.38 ± 1.57 ng/mL. For the same substance, the hemoglobin content (Hemolytic Anemia Model; low dosage, 4.32 mg Fe/kg, after anemia (before treatment)) was 5.94 g %, the hemoglobin content (Hemolytic Anemia Model; low dosage, 4.32 mg Fe/kg, before anemia (baseline)) was 14.89 g % and the hemoglobin content (Hemolytic Anemia Model; low dosage, 4.32 mg Fe/kg, one week after treatment) was 9.95 g %. The hemoglobin content (Hemolytic Anemia Model; low dosage, 4.32 mg Fe/kg, two weeks after treatment) was 12.57 g %, the “action on treating anemia compared with ferrous gluconate” value (Hemolytic Anemia Model; same dosage of iron, 8.64 mg/kg) was “considerably better than ferrous gluconate” and the “hemochrome content, onset of increase” value (Nutritional IDA Model; end of 7 days supplementation) was “started to increase at the end of 7 days supplementation”. For the same substance, the “hemochrome content compared with normal control groups” value (Nutritional IDA Model; rat, in vivo) was “reached nearly the normal levels of normal control groups”, the “parameters investigated compared with ferrous gluconate” value (Nutritional IDA Model; same ferrous dosage) was “better than those of the known drug, ferrous gluconate” and the “chromosome aberration test result” value (mice testicle cells) was “negative”.
